Values after ≈ are worked out from the molar mass of the structure shown. Each block holds one compound with its values, some of them ahead of it. Active and inactive are the calls of the source. No cut-off for these calls is given here.
Assays:
Candida albicans [1] = experiment: Antifungal activity against Candida albicans NCIM 3471 at 10 ug/disk after 72 hr by disk diffusion method; assay type: functional; conditions: NCIM 3471, 72 h, read-out: DIZ
Rhodotorula mucilaginosa [2] = experiment: Antifungal activity against Rhodotorula mucilaginosa NCIM 3174 at 10 ug/disk after 72 hr by disk diffusion method; assay type: functional; conditions: NCIM 3174, 72 h, read-out: DIZ
Aspergillus flavus [3] = experiment: Antifungal activity against Aspergillus flavus NCIM 535 at 10 ug/disk after 72 hr by disk diffusion method; assay type: functional; conditions: NCIM 535, 72 h, read-out: DIZ
Aspergillus niger [4] = experiment: Antifungal activity against Aspergillus niger NCIM 1196 at 10 ug/disk after 72 hr by disk diffusion method; assay type: functional; conditions: NCIM 1196, 72 h, read-out: DIZ
Penicillium chrysogenum [5] = experiment: Antifungal activity against Penicillium chrysogenum NCIM 707 at 10 ug/disk after 72 hr by disk diffusion method; assay type: functional; conditions: NCIM 707, 72 h, read-out: DIZ
Lipomyces lipofer [6] = experiment: Antifungal activity against Lipomyces lipofer NCIM 3252 at 10 ug/disk after 72 hr by disk diffusion method; assay type: functional; conditions: NCIM 3252, 72 h, read-out: DIZ
Lipomyces lipofer [7] = experiment: Antifungal activity against Lipomyces lipofer NCIM 3252 at 1000 ug/disk after 72 hr by disk diffusion method; assay type: functional; conditions: NCIM 3252, 72 h, read-out: DIZ
Lipomyces lipofer [8] = experiment: Antifungal activity against Lipomyces lipofer NCIM 3252 at 500 ug/disk after 72 hr by disk diffusion method; assay type: functional
Candida albicans [9] = experiment: Antifungal activity against Candida albicans NCIM 3471 at 1000 ug/disk after 72 hr by disk diffusion method; assay type: functional; conditions: NCIM 3471, 72 h, read-out: DIZ
Candida albicans [10] = experiment: Antifungal activity against Candida albicans NCIM 3471 at 500 ug/disk after 72 hr by disk diffusion method; assay type: functional
Rhodotorula mucilaginosa [11] = experiment: Antifungal activity against Rhodotorula mucilaginosa NCIM 3174 at 1000 ug/disk after 72 hr by disk diffusion method; assay type: functional; conditions: NCIM 3174, 72 h, read-out: DIZ
Rhodotorula mucilaginosa [12] = experiment: Antifungal activity against Rhodotorula mucilaginosa NCIM 3174 at 500 ug/disk after 72 hr by disk diffusion method; assay type: functional
Aspergillus flavus [13] = experiment: Antifungal activity against Aspergillus flavus NCIM 535 at 1000 ug/disk after 72 hr by disk diffusion method; assay type: functional; conditions: NCIM 535, 72 h, read-out: DIZ
Aspergillus flavus [14] = experiment: Antifungal activity against Aspergillus flavus NCIM 535 at 500 ug/disk after 72 hr by disk diffusion method; assay type: functional; conditions: NCIM 535, 72 h, read-out: DIZ
Aspergillus niger [15] = experiment: Antifungal activity against Aspergillus niger NCIM 1196 at 1000 ug/disk after 72 hr by disk diffusion method; assay type: functional
Aspergillus niger [16] = experiment: Antifungal activity against Aspergillus niger NCIM 1196 at 500 ug/disk after 72 hr by disk diffusion method; assay type: functional
Penicillium chrysogenum [17] = experiment: Antifungal activity against Penicillium chrysogenum NCIM 707 at 1000 ug/disk after 72 hr by disk diffusion method; assay type: functional; conditions: NCIM 707, 72 h, read-out: DIZ
Penicillium chrysogenum [18] = experiment: Antifungal activity against Penicillium chrysogenum NCIM 707 at 500 ug/disk after 72 hr by disk diffusion method; assay type: functional
Streptomyces albus [19] = experiment: Antibacterial activity against Streptomyces albus NCIM 2178 at 1000 ug/disk after 24 hr by disk diffusion method; assay type: functional; conditions: NCIM 2178, 24 h, read-out: DIZ
Streptomyces albus [20] = experiment: Antibacterial activity against Streptomyces albus NCIM 2178 at 500 ug/disk after 24 hr by disk diffusion method; assay type: functional, organism-based
Bacillus cereus [21] = experiment: Antibacterial activity against Bacillus cereus NCIM 2155 at 1000 ug/disk after 24 hr by disk diffusion method; assay type: functional; conditions: NCIM 2155, 24 h, read-out: DIZ
Bacillus cereus [22] = experiment: Antibacterial activity against Bacillus cereus NCIM 2155 at 500 ug/disk after 24 hr by disk diffusion method; assay type: functional; conditions: NCIM 2155, 24 h, read-out: DIZ
Bacillus subtilis [23] = experiment: Antibacterial activity against Bacillus subtilis NCIM 2063 at 1000 ug/disk after 24 hr by disk diffusion method; assay type: functional; conditions: NCIM 2063, 24 h, read-out: DIZ
Bacillus subtilis [24] = experiment: Antibacterial activity against Bacillus subtilis NCIM 2063 at 500 ug/disk after 24 hr by disk diffusion method; assay type: functional
Klebsiella aerogenes [25] = experiment: Antibacterial activity against Enterobacter aerogenes NCIM 2239 at 1000 ug/disk after 24 hr by disk diffusion method; assay type: functional; conditions: NCIM 2239, 24 h, read-out: DIZ
Klebsiella aerogenes [26] = experiment: Antibacterial activity against Enterobacter aerogenes NCIM 2239 at 500 ug/disk after 24 hr by disk diffusion method; assay type: functional
Pseudomonas aeruginosa [27] = experiment: Antibacterial activity against Pseudomonas aeruginosa NCIM 2200 at 1000 ug/disk after 24 hr by disk diffusion method; assay type: functional; conditions: NCIM 2200, 24 h, read-out: DIZ
Pseudomonas aeruginosa [28] = experiment: Antibacterial activity against Pseudomonas aeruginosa NCIM 2200 at 500 ug/disk after 24 hr by disk diffusion method; assay type: functional
Escherichia coli [29] = experiment: Antibacterial activity against Escherichia coli NCIM 2065 at 1000 ug/disk after 24 hr by disk diffusion method; assay type: functional; conditions: NCIM 2065, 24 h, read-out: DIZ
Escherichia coli [30] = experiment: Antibacterial activity against Escherichia coli NCIM 2065 at 500 ug/disk after 24 hr by disk diffusion method; assay type: functional; conditions: NCIM 2065, 24 h, read-out: DIZ
Bacillus subtilis [31] = experiment: Antibacterial activity against Bacillus subtilis NCIM 2063 after 24 hr by broth dilution assay; assay type: functional; conditions: NCIM 2063, 24 h
Klebsiella aerogenes [32] = experiment: Antibacterial activity against Enterobacter aerogenes NCIM 2239 after 24 hr by broth dilution assay; assay type: functional; conditions: NCIM 2239, 24 h
Pseudomonas aeruginosa [33] = experiment: Antibacterial activity against Pseudomonas aeruginosa NCIM 2200 after 24 hr by broth dilution assay; assay type: functional; conditions: NCIM 2200, 24 h
Escherichia coli [34] = experiment: Antibacterial activity against Escherichia coli NCIM 2065 after 24 hr by broth dilution assay; assay type: functional; conditions: NCIM 2065, 24 h
Lipomyces lipofer [35] = experiment: Antifungal activity against Lipomyces lipofer NCIM 3252 after 72 hr by broth dilution assay; assay type: functional; conditions: NCIM 3252, 72 h
Candida albicans [36] = experiment: Antifungal activity against Candida albicans NCIM 3471 after 72 hr by broth dilution assay; assay type: functional; conditions: NCIM 3471, 72 h
Rhodotorula mucilaginosa [37] = experiment: Antifungal activity against Rhodotorula mucilaginosa NCIM 3174 after 72 hr by broth dilution assay; assay type: functional; conditions: NCIM 3174, 72 h
Aspergillus flavus [38] = experiment: Antifungal activity against Aspergillus flavus NCIM 535 after 72 hr by broth dilution assay; assay type: functional; conditions: NCIM 535, 72 h
Aspergillus niger [39] = experiment: Antifungal activity against Aspergillus niger NCIM 1196 after 72 hr by broth dilution assay; assay type: functional; conditions: NCIM 1196, 72 h
Penicillium chrysogenum [40] = experiment: Antifungal activity against Penicillium chrysogenum NCIM 707 after 72 hr by broth dilution assay; assay type: functional; conditions: NCIM 707, 72 h
Streptomyces albus [41] = experiment: Antibacterial activity against Streptomyces albus NCIM 2178 after 24 hr by broth dilution assay; assay type: functional; conditions: NCIM 2178, 24 h
Bacillus cereus [42] = experiment: Antibacterial activity against Bacillus cereus NCIM 2155 after 24 hr by broth dilution assay; assay type: functional; conditions: NCIM 2155, 24 h
Streptomyces albus [43] = experiment: Antibacterial activity against Streptomyces albus NCIM 2178 at 5 ug/disk after 24 hr by disk diffusion method; assay type: functional; conditions: NCIM 2178, 24 h, read-out: DIZ
Bacillus cereus [44] = experiment: Antibacterial activity against Bacillus cereus NCIM 2155 at 5 ug/disk after 24 hr by disk diffusion method; assay type: functional; conditions: NCIM 2155, 24 h, read-out: DIZ
Bacillus subtilis [45] = experiment: Antibacterial activity against Bacillus subtilis NCIM 2063 at 5 ug/disk after 24 hr by disk diffusion method; assay type: functional; conditions: NCIM 2063, 24 h, read-out: DIZ
Klebsiella aerogenes [46] = experiment: Antibacterial activity against Enterobacter aerogenes NCIM 2239 at 5 ug/disk after 24 hr by disk diffusion method; assay type: functional; conditions: NCIM 2239, 24 h, read-out: DIZ
Pseudomonas aeruginosa [47] = experiment: Antibacterial activity against Pseudomonas aeruginosa NCIM 2200 at 5 ug/disk after 24 hr by disk diffusion method; assay type: functional; conditions: NCIM 2200, 24 h, read-out: DIZ
Escherichia coli [48] = experiment: Antibacterial activity against Escherichia coli NCIM 2065 at 5 ug/disk after 24 hr by disk diffusion method; assay type: functional; conditions: NCIM 2065, 24 h, read-out: DIZ

SMILES: Clc1ccccc1C(c1ccccc1)(c1ccccc1)n1ccnc1 [CLOTRIMAZOLE]
zone of inhibition at 10 µg/disc (Candida albicans [1]): 18 mm
zone of inhibition at 10 µg/disc (Rhodotorula mucilaginosa [2]): 17 mm
zone of inhibition at 10 µg/disc (Aspergillus flavus [3]): 16 mm
zone of inhibition at 10 µg/disc (Aspergillus niger [4]): 16 mm
zone of inhibition at 10 µg/disc (Penicillium chrysogenum [5]): 21 mm
zone of inhibition at 10 µg/disc (Lipomyces lipofer [6]): 18 mm

MIC (Bacillus subtilis [31]): 31.2 µg/mL (≈ 137 µM)
MIC (Klebsiella aerogenes [32]): 15.6 µg/mL (≈ 68.7 µM)
MIC (Pseudomonas aeruginosa [33]): 7.8 µg/mL (≈ 34.3 µM)
MIC (Escherichia coli [34]): 3.9 µg/mL (≈ 17.2 µM)
MIC (Lipomyces lipofer [35]): 31.2 µg/mL (≈ 137 µM)
MIC (Candida albicans [36]): 31.2 µg/mL (≈ 137 µM)
MIC (Rhodotorula mucilaginosa [37]): 15.6 µg/mL (≈ 68.7 µM)
MIC (Aspergillus flavus [38]): 7.8 µg/mL (≈ 34.3 µM)
MIC (Aspergillus niger [39]): 125 µg/mL (≈ 550 µM)
MIC (Penicillium chrysogenum [40]): 62.5 µg/mL (≈ 275 µM)
MIC (Streptomyces albus [41]): 62.5 µg/mL (≈ 275 µM)
MIC (Bacillus cereus [42]): 15.6 µg/mL (≈ 68.7 µM)
SMILES: Cc1cccc2cc3c(=O)[nH]c(=O)[nH]c3nc12
zone of inhibition at 1000 µg/disc (Lipomyces lipofer [7]): 13 mm
diameter of the inhibition zone (DIZ) (Lipomyces lipofer [8]): inactive
zone of inhibition at 1000 µg/disc (Candida albicans [9]): 11 mm
diameter of the inhibition zone (DIZ) (Candida albicans [10]): inactive
zone of inhibition at 1000 µg/disc (Rhodotorula mucilaginosa [11]): 13 mm
diameter of the inhibition zone (DIZ) (Rhodotorula mucilaginosa [12]): inactive
zone of inhibition at 1000 µg/disc (Aspergillus flavus [13]): 13 mm
zone of inhibition at 500 µg/disc (Aspergillus flavus [14]): 9 mm
diameter of the inhibition zone (DIZ) (Aspergillus niger [15]): inactive
diameter of the inhibition zone (DIZ) (Aspergillus niger [16]): inactive
zone of inhibition at 1000 µg/disc (Penicillium chrysogenum [17]): 9 mm
diameter of the inhibition zone (DIZ) (Penicillium chrysogenum [18]): inactive
zone of inhibition at 1000 µg/disc (Streptomyces albus [19]): 10 mm
diameter of the inhibition zone (DIZ) (Streptomyces albus [20]): inactive
zone of inhibition at 1000 µg/disc (Bacillus cereus [21]): 12 mm
zone of inhibition at 500 µg/disc (Bacillus cereus [22]): 11 mm
zone of inhibition at 1000 µg/disc (Bacillus subtilis [23]): 10 mm
diameter of the inhibition zone (DIZ) (Bacillus subtilis [24]): inactive
zone of inhibition at 1000 µg/disc (Klebsiella aerogenes [25]): 13 mm
diameter of the inhibition zone (DIZ) (Klebsiella aerogenes [26]): inactive
zone of inhibition at 1000 µg/disc (Pseudomonas aeruginosa [27]): 11 mm
diameter of the inhibition zone (DIZ) (Pseudomonas aeruginosa [28]): inactive
zone of inhibition at 1000 µg/disc (Escherichia coli [29]): 15 mm
zone of inhibition at 500 µg/disc (Escherichia coli [30]): 14 mm

SMILES: CC1COc2c(N3CCN(C)CC3)c(F)cc3c(=O)c(C(=O)O)cn1c23 (stereo not drawn) [OFLOXACIN]
zone of inhibition at 5 µg/disc (Streptomyces albus [43]): 21 mm
zone of inhibition at 5 µg/disc (Bacillus cereus [44]): 19 mm
zone of inhibition at 5 µg/disc (Bacillus subtilis [45]): 22 mm
zone of inhibition at 5 µg/disc (Klebsiella aerogenes [46]): 21 mm
zone of inhibition at 5 µg/disc (Pseudomonas aeruginosa [47]): 22 mm
zone of inhibition at 5 µg/disc (Escherichia coli [48]): 23 mm

— ChEMBL document CHEMBL3045679, “Microwave-assisted synthesis and pharmacological studies of novel 5-deazaalloxazine derivatives” (2012)
